Assay results from patent US20220135591A1, “HETEROCYCLIC COMPOUNDS AS INHIBITORS OF MONOACYLGLYCEROL LIPASE (MAGL)” (Hoffmann-La Roche Inc., priority 2019, published 2022).

Biological target: T1, MAGL (recombinant wild-type) (Homo sapiens, UniProt Q99685)
T1 sequence (Q99685 1-303): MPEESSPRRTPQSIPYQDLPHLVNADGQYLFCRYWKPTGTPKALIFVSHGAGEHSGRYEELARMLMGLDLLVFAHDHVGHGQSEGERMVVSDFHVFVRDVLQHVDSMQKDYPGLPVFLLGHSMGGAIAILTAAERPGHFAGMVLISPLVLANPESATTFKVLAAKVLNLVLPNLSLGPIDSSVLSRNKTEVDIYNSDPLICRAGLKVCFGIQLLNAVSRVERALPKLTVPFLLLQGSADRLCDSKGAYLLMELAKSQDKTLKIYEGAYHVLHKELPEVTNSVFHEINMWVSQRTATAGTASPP
Test: 4-NPA assay: MAGL inhibitory activity by hydrolysis of 4-nitrophenylacetate, absorbance at 405 nm
Format: biochemical
Conditions: 4-NPA assay (values without footnote [b])
Procedure, shortened: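 Final assay: 1 nM MAGL and 300 μM 4-nitrophenylacetate in 50 mM Tris, 1 mM EDTA, at RT. Compounds (25 μM–1.7 nM, 3-fold steps) were preincubated 15 min with enzyme. A405 was read 5 min after substrate addition and again after 80 min; activity was taken as the difference between reads.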

SMILES	IC50
Cc1ccc2oc(N3CCN(C(=O)c4ccc(C5(C)COC5)cc4)CC3)nc2n1 [Example 67, (4-(5-methyloxazolo[4,5-b]pyridin-2-yl)piperazin-1-yl)(4-(3-methyloxetan-3-yl)phenyl)methanone]	367 nM
Cc1ccc2oc(N3CCN(C(=O)c4ccc(C5(F)CC5)cc4)CC3)nc2n1 [Example 68, (4-(1-fluorocyclopropyl)phenyl)(4-(5-methyloxazolo[4,5-b]pyridin-2-yl)piperazin-1-yl)methanone]	4180 nM
CC1(COc2ccc(C(=O)N3CCN(c4nc5nc(Cl)ccc5o4)CC3)cc2F)CC1 [Example 69, [4-(5-chlorooxazolo[4,5-b]pyridin-2-yl)piperazin-1-yl]-[3-fluoro-4-[(1-methylcyclopropyl)methoxy]phenyl]methanone]	108 nM
Cc1ccc2oc(N3CCN(C(=O)c4ccc(-n5cnc(C(C)(C)C)n5)cc4)CC3)nc2n1 [Example 70, [4-(3-tert-butyl-1,2,4-triazol-1-yl)phenyl]-[4-(5-methyloxazolo[4,5-b]pyridin-2-yl)piperazin-1-yl]methanone]	43 nM
Cc1ccc2oc(N3CCN(C(=O)c4ccc(OCC5(C)CC5)c(F)c4)CC3)nc2n1 [Example 71, [3-fluoro-4-[(1-methylcyclopropyl)methoxy]phenyl]-[4-(5-methyloxazolo[4,5-b]pyridin-2-yl)piperazin-1-yl]methanone]	382 nM
CC(C)(C)c1ncn(-c2ccc(C(=O)N3CCN(c4nc5nc(Cl)ccc5o4)CC3)cc2)n1 [Example 72, [4-(3-tert-butyl-1,2,4-triazol-1-yl)phenyl]-[4-(5-chlorooxazolo[4,5-b]pyridin-2-yl)piperazin-1-yl]methanone]	27 nM
Cn1c(CC(C)(C)C)nnc1-c1ccc(C(=O)N2CCN(c3nc4nc(Cl)ccc4o3)CC2)cc1 [Example 73, [4-(5-chlorooxazolo[4,5-b]pyridin-2-yl)piperazin--yl]-[4-[5-(2,2-dimethylpropyl)-4-methyl-1,2,4-triazol-3-yl]phenyl]methanone]	409 nM
Cc1ccc2oc(N3CCN(C(=O)c4cnc(OCC5(C)CC5)c(C)c4)CC3)nc2n1 [Example 142, (5-methyl-6-((1-methylcyclopropyl)methoxy)pyridin-3-yl)(4-(5-methyloxazolo[4,5-b]pyridin-2-yl)piperazin-1-yl)methanone]	106 nM
Cc1ccc2oc(N3CCN(C(=O)c4cnc(OCC5(C(F)(F)F)CC5)c(C)c4)CC3)nc2n1 [Example 143, (5-methyl-6-((1-(trifluoromethyl)cyclopropyl)methoxy)pyridin-3-yl)(4-(5-methyloxazolo[4,5-b]pyridin-2-yl)piperazin-1-yl)methanone]	77 nM
O=C(c1cnc(OCC2(C(F)(F)F)CC2)c(F)c1)N1CCN(c2nc3nc(Cl)ccc3o2)CC1 [Example 144, (4-(5-chlorooxazolo[4,5-b]pyridin-2-yl)piperazin-1-yl)(5-fluoro-6-((1-(trifluoromethyl)cyclopropyl)methoxy)pyridin-3-yl)methanone]	105 nM
CC1(COc2ncc(C(=O)N3CCN(c4nc5nc(Cl)ccc5o4)CC3)cc2F)CC1 [Example 145, (4-(5-chlorooxazolo[4,5-b]pyridin-2-yl)piperazin-1-yl)(5-fluoro-6-((1-methylcyclopropyl)methoxy)pyridin-3-yl)methanone]	216 nM
Cc1ccc2oc(N3CCN(C(=O)c4cnc(OCC5(C)CC5)c(Cl)c4)CC3)nc2n1 [Example 146, (5-chloro-6-((1-methylcyclopropyl)methoxy)pyridin-3-yl)(4-(5-methyloxazolo[4,5-b]pyridin-2-yl)piperazin-1-yl)methanone]	135 nM
Cc1ccc2oc(N3CCN(C(=O)c4cnc(OCC5(C(F)(F)F)CC5)c(Cl)c4)CC3)nc2n1 [Example 147, (5-chloro-6-((1-(trifluoromethyl)cyclopropyl)methoxy)pyridin-3-yl)(4-(5-methyloxazolo[4,5-b]pyridin-2-yl)piperazin-1-yl)methanone]	128 nM
Cc1ccc2oc(N3CCN(C(=O)c4cc(Cl)cc(N5CCS(=O)(=O)CC5)c4)CC3)nc2n1 [Example 175, [3-chloro-5-(1,1-dioxo-1,4-thiazinan-4-yl)phenyl]-[4-(5-methyl-[1,3]oxazolo[4,5-b]pyridin-2-yl)piperazin-1-yl]methanone]	1520 nM
CC(=O)N1CCN(c2cc(Cl)cc(C(=O)N3CCN(c4nc5nc(C)ccc5o4)CC3)c2)CC1 [Example 176, 1-[4-[3-chloro-5-[4-(5-methyl-[1,3]oxazolo[4,5-b]pyridin-2-yl)piperazine-1-carbonyl]phenyl]piperazin-1-yl]ethanone]	4150 nM
Cc1ccc2oc(N3CCN(C(=O)c4cc(Cl)cc(N5CCC(F)(F)CC5)c4)CC3)nc2n1 [Example 177, [3-chloro-5-(4,4-difluoropiperidin-1-yl)phenyl]-[4-(5-methyl-[1,3]oxazolo[4,5-b]pyridin-2-yl)piperazin-1-yl]methanone]	3160 nM
Cc1ccc2oc(N3CCN(C(=O)c4cc(Cl)cc(N5CCC(CO)CC5)c4)CC3)nc2n1 [Example 178, [3-chloro-5-[4-(hydroxymethyl)piperidin-1-yl]phenyl]-[4-(5-methyl-[1,3]oxazolo[4,5-b]pyridin-2-yl)piperazin-1-yl]methanone]	2490 nM
Cc1ccc2oc(N3CCN(C(=O)c4cc(Cl)cc(N5CC6(CC(O)C6)C5)c4)CC3)nc2n1 [Example 179, [3-chloro-5-(6-hydroxy-2-azaspiro[3.3]heptan-2-yl)phenyl]-[4-(5-methyl-[1,3]oxazolo[4,5-b]pyridin-2-yl)piperazin-1-yl]methanone]	3940 nM
Cc1ccc2oc(N3CCN(C(=O)c4ccc(N5CC6(CCCC6)C5)c(-c5ncc[nH]5)c4)CC3)nc2n1 [Example 180, [4-(2-azaspiro[3.4]octan-2-yl)-3-(1H-imidazol-2-yl)phenyl]-[4-(5-methyl-[1,3]oxazolo[4,5-b]pyridin-2-yl)piperazin-1-yl]methanone]	810 nM
Cc1ccc2oc(N3CCN(C(=O)c4cc(Cl)cc(-c5ccc(CO)cc5)c4)CC3)nc2n1 [Example 181, [3-chloro-5-[4-(hydroxymethyl)phenyl]phenyl]-[4-(5-methyl-[1,3]oxazolo[4,5-b]pyridin-2-yl)piperazin-1-yl]methanone]	180 nM
Cc1ccc2oc(N3CCN(C(=O)c4cc(OCCC(F)(F)F)cc(-c5ccc(CO)cc5)c4)CC3)nc2n1 [Example 182, [3-[4-(hydroxymethyl)phenyl]-5-(3,3,3-trifluoropropoxy)phenyl]-[4-(5-methyl-[1,3]oxazolo[4,5-b]pyridin-2-yl)piperazin-1-yl]methanone]	379 nM
Cc1ccc2oc(N3CCN(C(=O)c4ccc(OCC5(C(F)(F)F)CC5)c(-c5ccc(CO)cc5)c4)CC3)nc2n1 [Example 183, [3-[4-(hydroxymethyl)phenyl]-4-[[1-(trifluoromethyl)cyclopropyl]methoxy]phenyl]-[4-(5-methyl-[1,3]oxazolo[4,5-b]pyridin-2-yl)piperazin-1-yl]methanone]	10 nM
Cc1ccc2oc(N3CCN(C(=O)c4ccc(OCCC(F)(F)F)c(-c5ccc(CO)cc5)c4)CC3)nc2n1 [Example 184, [3-[4-(hydroxymethyl)phenyl]-4-(3,3,3-trifluoropropoxy)phenyl]-[4-(5-methyl-[1,3]oxazolo[4,5-b]pyridin-2-yl)piperazin-1-yl]methanone]	78 nM
Cc1ccc2oc(N3CCN(C(=O)c4cc(OCC5(C(F)(F)F)CC5)cc(-c5ccc(CO)cc5)c4)CC3)nc2n1 [Example 185, [3-[4-(hydroxymethyl)phenyl]-5-[[1-(trifluoromethyl)cyclopropyl]methoxy]phenyl]-[4-(5-methyl-[1,3]oxazolo[4,5-b]pyridin-2-yl)piperazin-1-yl]methanone]	302 nM
Cc1ccc2oc(N3CCN(C(=O)c4ccc(-c5noc(CC(C)(C)C)n5)c(-c5ccc(CO)cc5)c4)CC3)nc2n1 [Example 186, [4-[5-(2,2-dimethylpropyl)-1,2,4-oxadiazol-3-yl]-3-[4-(hydroxymethyl)phenyl]phenyl]-[4-(5-methyl-[1,3]oxazolo[4,5-b]pyridin-2-yl)piperazin-1-yl]methanone]	12 nM
Cc1ccc2oc(N3CCN(C(=O)c4ccc(OCC5(C)CC5)c(-c5ccc(CO)cc5)c4)CC3)nc2n1 [Example 187, [3-[4-(hydroxymethyl)phenyl]-4-[(1-methylcyclopropyl)methoxy]phenyl]-[4-(5-methyl-[1,3]oxazolo[4,5-b]pyridin-2-yl)piperazin-1-yl]methanone]	9 nM
Cc1ccc2oc(N3CCN(C(=O)c4cc(OCC5(C)CC5)cc(-c5ccc(CO)cc5)c4)CC3)nc2n1 [Example 188, [3-[4-(hydroxymethyl)phenyl]-5-[(1-methylcyclopropyl)methoxy]phenyl]-[4-(5-methyl-[1,3]oxazolo[4,5-b]pyridin-2-yl)piperazin-1-yl]methanone]	165 nM
CC(C)(C)c1nc(-c2ccc(C(=O)N3CCN(c4nc5nc(C6CC6)ccc5o4)CC3)cc2)no1 [Example 189, (4-(5-(tert-butyl)-1,2,4-oxadiazol-3-yl)phenyl)(4-(5-cyclopropyloxazolo[4,5-b]pyridin-2-yl)piperazin-1-yl)methanone]	2490 nM
O=C(c1ccc(N2CC3(CCCO3)C2)cc1)N1CCN(c2nc3ncccc3o2)CC1 [Example 192, (4-(5-oxa-2-azaspiro[3.4]octan-2-yl)phenyl)(4-(oxazolo[4,5-b]pyridin-2-yl)piperazin-1-yl)methanone]	4120 nM
